{"source": "paper PMC9824012", "about": "“Exploring Antimicrobial Peptides Efficacy against Fire Blight (Erwinia amylovora)” (Plants, 2022)", "system": "Erwinia amylovora", "test": "Transmission electron microscopy of treated cells", "type": "cell-based, Erwinia amylovora strain PGL Z1", "conditions": "antibiotic control 0.5 mg/mL", "description": "Aliquots of E. amylovora suspensions were incubated with the KL29 for 15 min at room temperature to investigate peptide antibacterial modes of action (lytic and non-lytic). E. amylovora suspensions treated with 0.5 mg/mL of streptomycin (bacteriostatic antibiotic), and ampicillin (bactericidal antibiotic) were used as controls. Preparations were observed under TEM (FEI MORGAGNI 282D, Hillsboro, OR, USA) by the dip method: the carbon coated copper/rhodium grids were incubated with treated and untreated bacterial suspension for 2 min, and then rinsed with 200 μL of distilled water. Negative staining was obtained by floating the grids on 200 μL of 0.5 % w/v UA-zero EM STAIN (Agar-Scientific Ltd., Stansted, UK) solution and observing them under the EM using an accelerating voltage of 80 kV."}
{"molecule": "CC1(C)S[C@@H]2[C@H](NC(=O)[C@H](N)c3ccccc3)C(=O)N2[C@H]1C(=O)O", "note": "[ampicillin]", "values": [{"measurement": "TEM morphology of treated E. amylovora cells (in words)", "value": "damaged cell walls and the decomposition of inner structures"}]}
{"molecule": "[H]/N=C(/N)N[C@H]1[C@H](O)[C@@H](O)[C@H](O[C@@H]2O[C@@H](C)[C@](O)(C=O)[C@H]2O[C@@H]2O[C@@H](CO)[C@H](O)[C@@H](O)[C@@H]2NC)[C@@H](N/C(N)=N\\[H])[C@@H]1O", "note": "[streptomycin]", "values": [{"measurement": "TEM morphology of treated E. amylovora cells (in words)", "value": "reduced cell lysis and morphological alterations similar to those treated with KL29 at 250 µM"}]}
